Test results reported in patent publication US20020182619A1, “Compositions, kits, and methods for identification, assessment, prevention, and therapy of ovarian cancer” (Millennium Pharmaceuticals, Inc., priority 2000, published 2002).

Tested on: ovarian cell line (OVCAR3)
Assay: Transcript profiling on nylon arrays of OVCAR3 untreated or treated with LPA, LYS294002, or both
Type: cell-based
Experimental: Nylon arrays were prepared by spotting purified PCR product onto a nylon membrane using a robotic gridding system linked to a sample database. Several thousand clones were spotted on each nylon filter.
RNA or DNA from cell lines were used for hybridization against the nylon arrays. The RNA or DNA is labeled utilizing an in vitro reverse transcription reaction that contains a radiolabeled nucleotide that is incorporated during the reaction. Hybridization experiments were carried out by combining labeled RNA or DNA samples with nylon filters in a hybridization chamber. Duplicate, independent hybridization experiments were performed to generate transcriptional profiling data. See, Nature Genetics, 21 (1999).
The level of expression of ˜25,000 potential markers were measured in 4 samples, an untreated ovarian cell line (OVCAR3), OVCAR3 treated with LPA, OVCAR3 treated with LYS294002, and OVCAR3 treated with LPA and LYS294002. LYS294002 is a specific inhibitor of the P13Kinase pathway.
Table 1 represents the markers that are expressed at least 2.5 fold greater in the OVCAR3 cell line treated with LPA as compared to the untreated cell line (column G). Table 1 also lists the expression value of these potential marker in the 4 samples, untreated OVCAR3, OVCAR3 treated with LPA, OVCAR3 treated with LYS294002, and OVCAR3 treated with LYS294002 and LPA (columns C-F). […]

lysophosphatidic acid [LPA]
UPinLPA vs OVCAR3: marker expression in the OVCAR3 cell line treated with LPA as compared to the untreated cell line (markers of Table 1, quotient of Ave-LPA divided by Ave-OVCAR3): at least 2.5 fold
UPinOVCAR3 vs LPA: marker expression in the untreated OVCAR3 cell line as compared to the cell line treated with LPA (markers of Table 2, quotient of Ave-OVCAR3 divided by Ave-LPA): at least 4 fold
